According to the supplement of paper PMC10307832:

How the values were obtained:
Assay in all cases: relative viability (nuclei count vs DMSO), 5 days (fraction); higher = more cells survive
NCI-H2023 = system: NCI-H2023
Outline: (§1)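 The day after seeding in 1536-well plates, lung cancer cell lines were treated by pin tool with a single drug, or with a fixed anchor-drug dose together with five library-drug doses (not always all listed) in √10 steps. After 5 days, a combined fix-and-stain solution (final 0.05% Triton X-100, 1% formaldehyde, 1 ug/ml Hoechst) was added. Nuclei counted on 4× images gave relative viability as treated counts over vehicle counts, reported as the median of duplicate plates.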

SW 900 = system: SW 900
Outline: as §1

NCI-H1915 = system: NCI-H1915
Outline: as §1

UMC-11 = system: UMC-11
Outline: as §1

NCI-H1975 = system: NCI-H1975
Outline: as §1

LC-2-ad = system: LC-2-ad
Outline: as §1

CAL-12T = system: CAL-12T
Outline: as §1

NCI-H1395 = system: NCI-H1395
Outline: as §1

NCI-H2405 = system: NCI-H2405
Outline: as §1

A-427 = system: A-427
Outline: as §1

COR-L 105 = system: COR-L 105
Outline: as §1

HCC-44 = system: HCC-44
Outline: as §1

HCC-15 = system: HCC-15
Outline: as §1

LCLC-97TM1 = system: LCLC-97TM1
Outline: as §1

NCI-H2342 = system: NCI-H2342
Outline: as §1

SW 1573 = system: SW 1573
Outline: as §1

NCI-H1734 = system: NCI-H1734
Outline: as §1

NCI-H2347 = system: NCI-H2347
Outline: as §1

NCI-H838 = system: NCI-H838
Outline: as §1

NCI-H520 = system: NCI-H520
Outline: as §1

EPLC-272H = system: EPLC-272H
Outline: as §1

`Cc1cn(-c2cc(NC(=O)c3ccc(C)c(Nc4nccc(-c5cccnc5)n4)c3)cc(C(F)(F)F)c2)cn1` [Nilotinib] + Cc1cc(Nc2cc(N3CCN(C)CC3)nc(Sc3ccc(NC(=O)C4CC4)cc3)n2)n[nH]1 [Tozasertib] (partner 0.1 µM) gave a relative viability (NCI-H2023; first compound 0.001 µM) of 0.192, a relative viability (NCI-H2023; first compound 0.003162 µM) of 0.225 and a relative viability (NCI-H2023; first compound 0.01 µM) of 0.224. For the same molecule, the relative viability (NCI-H2023; first compound 0.03162 µM) was 0.159, the relative viability (NCI-H2023; first compound 0.1 µM) was 0.183 and the relative viability (SW 900; first compound 0.001 µM) was 0.324. For the same molecule, the relative viability (SW 900; first compound 0.003162 µM) was 0.51, the relative viability (SW 900; first compound 0.01 µM) was 0.389 and the relative viability (SW 900; first compound 0.03162 µM) was 0.34. The relative viability (SW 900; first compound 0.1 µM) was 0.262, the relative viability (NCI-H1915; first compound 0.001 µM) was 0.366 and the relative viability (NCI-H1915; first compound 0.003162 µM) was 0.484. For the same molecule, the relative viability (NCI-H1915; first compound 0.01 µM) was 0.457, the relative viability (NCI-H1915; first compound 0.03162 µM) was 0.32 and the relative viability (NCI-H1915; first compound 0.1 µM) was 0.311. It also gave a relative viability (UMC-11; first compound 0.001 µM) of 0.191, a relative viability (UMC-11; first compound 0.003162 µM) of 0.19 and a relative viability (UMC-11; first compound 0.01 µM) of 0.179. The relative viability (UMC-11; first compound 0.03162 µM) was 0.166, the relative viability (UMC-11; first compound 0.1 µM) was 0.134 and the relative viability (NCI-H1975; first compound 0.001 µM) was 0.212. For the same molecule, the relative viability (NCI-H1975; first compound 0.003162 µM) was 0.224, the relative viability (NCI-H1975; first compound 0.01 µM) was 0.205 and the relative viability (NCI-H1975; first compound 0.03162 µM) was 0.154. The relative viability (NCI-H1975; first compound 0.1 µM) was 0.218, the relative viability (LC-2-ad; first compound 0.001 µM) was 0.371 and the relative viability (LC-2-ad; first compound 0.003162 µM) was 0.337. For the same molecule, the relative viability (LC-2-ad; first compound 0.01 µM) was 0.382, the relative viability (LC-2-ad; first compound 0.03162 µM) was 0.384 and the relative viability (LC-2-ad; first compound 0.1 µM) was 0.403. For the same molecule, the relative viability (CAL-12T; first compound 0.001 µM) was 0.197, the relative viability (CAL-12T; first compound 0.003162 µM) was 0.217 and the relative viability (CAL-12T; first compound 0.01 µM) was 0.219. It also gave a relative viability (CAL-12T; first compound 0.03162 µM) of 0.172, a relative viability (CAL-12T; first compound 0.1 µM) of 0.211 and a relative viability (NCI-H1395; first compound 0.001 µM) of 0.691. It also gave a relative viability (NCI-H1395; first compound 0.003162 µM) of 0.674, a relative viability (NCI-H1395; first compound 0.01 µM) of 0.751 and a relative viability (NCI-H1395; first compound 0.03162 µM) of 0.612. It also gave a relative viability (NCI-H1395; first compound 0.1 µM) of 0.736, a relative viability (NCI-H2405; first compound 0.001 µM) of 0.767 and a relative viability (NCI-H2405; first compound 0.003162 µM) of 0.765. For the same molecule, the relative viability (NCI-H2405; first compound 0.01 µM) was 0.712, the relative viability (NCI-H2405; first compound 0.03162 µM) was 0.654 and the relative viability (NCI-H2405; first compound 0.1 µM) was 0.723. For the same molecule, the relative viability (A-427; first compound 0.001 µM) was 0.168, the relative viability (A-427; first compound 0.003162 µM) was 0.184 and the relative viability (A-427; first compound 0.01 µM) was 0.149. For the same molecule, the relative viability (A-427; first compound 0.03162 µM) was 0.167, the relative viability (A-427; first compound 0.1 µM) was 0.168 and the relative viability (COR-L 105; first compound 0.001 µM) was 0.361. The relative viability (COR-L 105; first compound 0.003162 µM) was 0.329, the relative viability (COR-L 105; first compound 0.01 µM) was 0.497 and the relative viability (COR-L 105; first compound 0.03162 µM) was 0.329. For the same molecule, the relative viability (COR-L 105; first compound 0.1 µM) was 0.317, the relative viability (HCC-44; first compound 0.001 µM) was 0.615 and the relative viability (HCC-44; first compound 0.003162 µM) was 0.842. The relative viability (HCC-44; first compound 0.01 µM) was 0.948, the relative viability (HCC-44; first compound 0.03162 µM) was 0.621 and the relative viability (HCC-44; first compound 0.1 µM) was 0.487. For the same molecule, the relative viability (HCC-15; first compound 0.001 µM) was 0.236, the relative viability (HCC-15; first compound 0.003162 µM) was 0.312 and the relative viability (HCC-15; first compound 0.01 µM) was 0.217. The relative viability (HCC-15; first compound 0.03162 µM) was 0.165, the relative viability (HCC-15; first compound 0.1 µM) was 0.136 and the relative viability (LCLC-97TM1; first compound 0.001 µM) was 0.236. It also gave a relative viability (LCLC-97TM1; first compound 0.003162 µM) of 0.254, a relative viability (LCLC-97TM1; first compound 0.01 µM) of 0.161 and a relative viability (LCLC-97TM1; first compound 0.03162 µM) of 0.182. The relative viability (LCLC-97TM1; first compound 0.1 µM) was 0.217, the relative viability (NCI-H2342; first compound 0.001 µM) was 0.501 and the relative viability (NCI-H2342; first compound 0.003162 µM) was 0.561. It also gave a relative viability (NCI-H2342; first compound 0.01 µM) of 0.45, a relative viability (NCI-H2342; first compound 0.03162 µM) of 0.494 and a relative viability (NCI-H2342; first compound 0.1 µM) of 0.603. The relative viability (SW 1573; first compound 0.001 µM) was 0.194, the relative viability (SW 1573; first compound 0.003162 µM) was 0.165 and the relative viability (SW 1573; first compound 0.01 µM) was 0.211. The relative viability (SW 1573; first compound 0.03162 µM) was 0.173, the relative viability (SW 1573; first compound 0.1 µM) was 0.15 and the relative viability (NCI-H1734; first compound 0.001 µM) was 0.251. The relative viability (NCI-H1734; first compound 0.003162 µM) was 0.273, the relative viability (NCI-H1734; first compound 0.01 µM) was 0.324 and the relative viability (NCI-H1734; first compound 0.03162 µM) was 0.231. For the same molecule, the relative viability (NCI-H1734; first compound 0.1 µM) was 0.214, the relative viability (NCI-H2347; first compound 0.001 µM) was 0.451 and the relative viability (NCI-H2347; first compound 0.003162 µM) was 0.463. It also gave a relative viability (NCI-H2347; first compound 0.01 µM) of 0.489, a relative viability (NCI-H2347; first compound 0.03162 µM) of 0.476 and a relative viability (NCI-H2347; first compound 0.1 µM) of 0.3. The relative viability (NCI-H838; first compound 0.001 µM) was 0.219, the relative viability (NCI-H838; first compound 0.003162 µM) was 0.298 and the relative viability (NCI-H838; first compound 0.01 µM) was 0.294. It also gave a relative viability (NCI-H838; first compound 0.03162 µM) of 0.228, a relative viability (NCI-H838; first compound 0.1 µM) of 0.221 and a relative viability (NCI-H520; first compound 0.001 µM) of 0.486. For the same molecule, the relative viability (NCI-H520; first compound 0.003162 µM) was 0.46, the relative viability (NCI-H520; first compound 0.01 µM) was 0.428 and the relative viability (NCI-H520; first compound 0.03162 µM) was 0.462. For the same molecule, the relative viability (NCI-H520; first compound 0.1 µM) was 0.386, the relative viability (EPLC-272H; first compound 0.001 µM) was 0.212 and the relative viability (EPLC-272H; first compound 0.003162 µM) was 0.18. The relative viability (EPLC-272H; first compound 0.01 µM) was 0.251, the relative viability (EPLC-272H; first compound 0.03162 µM) was 0.182 and the relative viability (EPLC-272H; first compound 0.1 µM) was 0.105.
